The record followed here is patent US20250215030A1, “STAT MODULATORS AND USES THEREOF” (Recludix Pharma, Inc., priority 2022, published 2025).

The target of one assay is T1, pSTAT6 (pY641-STAT6) (Homo sapiens, UniProt P42226).
T1 construct: host or cells: cryopreserved PBMC
T1 sequence (P42226 1-847): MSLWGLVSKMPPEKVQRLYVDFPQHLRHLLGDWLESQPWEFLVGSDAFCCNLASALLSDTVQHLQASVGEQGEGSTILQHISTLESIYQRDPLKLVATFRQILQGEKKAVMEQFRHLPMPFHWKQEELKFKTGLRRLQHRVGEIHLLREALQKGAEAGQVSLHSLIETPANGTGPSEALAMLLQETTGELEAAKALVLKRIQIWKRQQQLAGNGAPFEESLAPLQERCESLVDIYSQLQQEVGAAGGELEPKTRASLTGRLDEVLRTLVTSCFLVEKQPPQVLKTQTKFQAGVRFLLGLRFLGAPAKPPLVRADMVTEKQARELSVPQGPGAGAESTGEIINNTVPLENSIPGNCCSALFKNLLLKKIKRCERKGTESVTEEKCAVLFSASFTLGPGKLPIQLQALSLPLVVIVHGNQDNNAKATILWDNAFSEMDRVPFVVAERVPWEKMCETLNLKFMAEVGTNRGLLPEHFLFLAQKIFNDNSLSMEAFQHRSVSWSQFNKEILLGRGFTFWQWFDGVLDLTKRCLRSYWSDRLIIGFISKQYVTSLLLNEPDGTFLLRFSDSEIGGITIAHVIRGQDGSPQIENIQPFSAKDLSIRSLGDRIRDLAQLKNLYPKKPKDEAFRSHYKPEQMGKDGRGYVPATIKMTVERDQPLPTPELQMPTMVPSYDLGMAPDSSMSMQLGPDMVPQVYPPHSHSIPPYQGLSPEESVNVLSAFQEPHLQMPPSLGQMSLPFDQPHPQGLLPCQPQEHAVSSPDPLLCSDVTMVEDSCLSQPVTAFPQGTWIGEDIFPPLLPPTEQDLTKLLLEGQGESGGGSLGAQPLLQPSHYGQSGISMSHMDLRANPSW
In words: MSD-pSTAT-PBMC Assay (pSTAT6, IL-4 stimulated). The class given is cell-based. As to conditions: compound 3 hrs, then 1 ng/mL IL-4 for 10 min. A digest of the protocol: (§1)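 Phospho-STAT levels captured on anti-STAT3 or anti-STAT6 plates and detected with anti-pY705 or anti-pY641 antibodies (MSD read-out). Cryopreserved human PBMCs received compound for 3 h before a 10 min pulse of IL-6 (10 ng/mL, STAT3) or IL-4 (1 ng/mL, STAT6). IC50 fitted after unstimulated-background subtraction and DMSO normalization.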

In a further assay the target is T2, pSTAT3 (pY705-STAT3) (Homo sapiens, UniProt P40763).
T2 construct: host or cells: cryopreserved PBMC
In words: MSD-pSTAT-PBMC Assay (pSTAT3, IL-6 stimulated). The format is cell-based. As to conditions: PBMC, compound 3 hrs, then 10 ng/mL IL-6 for 10 min; MSD pY705-STAT3; read-out: pSTAT3. A digest of the protocol: as §1

Molecules are shown by their SMILES.

T2 sequence (P40763 whole entry): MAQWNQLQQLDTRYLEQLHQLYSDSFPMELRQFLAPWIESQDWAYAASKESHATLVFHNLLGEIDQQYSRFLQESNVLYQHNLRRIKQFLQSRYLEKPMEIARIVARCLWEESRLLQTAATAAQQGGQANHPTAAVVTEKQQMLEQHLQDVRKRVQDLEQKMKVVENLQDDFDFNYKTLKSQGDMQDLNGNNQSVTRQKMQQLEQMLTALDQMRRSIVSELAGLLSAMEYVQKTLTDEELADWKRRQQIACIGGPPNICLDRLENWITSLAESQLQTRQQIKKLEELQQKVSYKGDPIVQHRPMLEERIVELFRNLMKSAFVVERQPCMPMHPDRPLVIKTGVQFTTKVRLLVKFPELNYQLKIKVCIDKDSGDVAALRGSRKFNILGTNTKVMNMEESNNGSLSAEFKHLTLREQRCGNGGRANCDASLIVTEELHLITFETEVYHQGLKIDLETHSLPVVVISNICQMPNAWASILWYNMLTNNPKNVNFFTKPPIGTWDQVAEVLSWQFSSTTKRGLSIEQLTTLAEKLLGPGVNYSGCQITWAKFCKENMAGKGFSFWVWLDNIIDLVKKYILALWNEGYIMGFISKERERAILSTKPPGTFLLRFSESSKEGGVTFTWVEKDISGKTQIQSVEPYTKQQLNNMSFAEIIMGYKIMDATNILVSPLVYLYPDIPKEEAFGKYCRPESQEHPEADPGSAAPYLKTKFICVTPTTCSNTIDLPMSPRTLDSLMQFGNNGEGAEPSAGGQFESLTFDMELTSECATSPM

For the compound `CC(C)CC(=O)SCCOP(=O)(OCCSC(=O)CC(C)C)C(F)(F)c1ccc2sc(C(=O)N[C@H]3C[C@H]4C[C@H]4C[C@H]4CC[C@@H](C(=O)N[C@@H]5CCN(c6cccnc6)C5)N4C3=O)cc2c1` [Compound 224, S,S′-((((difluoro(2-(((3S,6S,7aR, 8aS,9aR)-5-oxo-3-(((R)-1-(pyridin-3-yl)pyrrolidin-3-yl)carbamoyl)decahydro-1H-cyclopropa[d]pyrrolo[1,2-a]azocin-6-yl)carbamoyl)benzo[b]thiophen-5-yl)methyl)phosphoryl)bis(oxy))bis(ethane-2,1-diyl)) bis(3-methylbutane thioate)], the IC50 at pSTAT6 (pY641-STAT6) was more than 3000 nM; on pSTAT3 (pY705-STAT3) it was less than 100 nM.
Consider `CC(C)(CO)C(=O)SCCOP(=O)(Cc1ccc2sc(C(=O)N[C@H]3C[C@@H]4C[C@@H]4C[C@H]4CC[C@@H](C(=O)N5CC(n6ccnc6)C5)N4C3=O)cc2c1)OCCSC(=O)C(C)(C)CO` [Compound 146, S,S′-(((((2-(((3S,6S,7aS, 8aR,9aR)-3-(3-(1H-imidazol-1-yl)azetidine-1-carbonyl)-5-oxodecahydro-1H-cyclopropa[d]pyrrolo[1,2-a]azocin-6-yl)carbamoyl)benzo[b]thiophen-5-yl)methyl)phosphoryl)bis(oxy))bis(ethane-2,1-diyl)) bis(3-hydroxy-2,2-dimethyl-propanethioate)], for which the IC50 against pSTAT6 (pY641-STAT6) and on pSTAT3 (pY705-STAT3) was more than 3000 nM each time.
Consider `CC(C)(C)C(=O)OCOP(=O)(Cc1ccc2sc(C(=O)N[C@H]3C[C@@H]4C[C@@H]4C[C@H]4CC[C@@H](C(=O)N5CC(n6ccnc6)C5)N4C3=O)cc2c1)OCOC(=O)C(C)(C)C` [Compound 156, ((((2-(((3S,6S,7aS, 8aR,9aR)-3-(3-(1H-imidazol-1-yl)azetidine-1-carbonyl)-5-oxodecahydro-1H-cyclopropa[d]pyrrolo[1,2-a]azocin-6-yl)carbamoyl)benzo[b]thiophen-5-yl)methyl)phosphoryl)bis(oxy)) bis(methylene) bis(2,2-dimethyl-propanoate)], for which the IC50 is more than 3000 nM against pSTAT6 (pY641-STAT6) and less than 100 nM at pSTAT3 (pY705-STAT3).
On the same counts, the results for `CC(C)CC(=O)SCCOP(=O)(Oc1ccccc1)C(F)(F)c1ccc2sc(C(=O)N[C@H]3C[C@H]4C[C@H]4C[C@H]4CC[C@@H](C(=O)N5CC(c6cccnc6)C5)N4C3=O)cc2c1` (stereo partly drawn) [Compound 193, S-(2-(((difluoro(2-(((3S,6S,7aR, 8aS,9aR)-5-oxo-3-(3-(pyridin-3-yl)azetidine-1-carbonyl)decahydro-1H-cyclopropa[d]pyrrolo[1,2-a]azocin-6-yl)carbamoyl)benzo[b]thiophen-5-yl)methyl) (phenoxy)phosphoryl)oxy)ethyl) 3-methylbutane thioate] are more than 3000 nM and less than 100 nM.
Turning to `CC(C)(C)C(=O)OCOP(=O)(OCOC(=O)C(C)(C)C)C(F)(F)c1ccc2sc(C(=O)N[C@H]3C[C@@H]4C[C@@H]4C[C@H]4CC[C@@H](C(=O)Nc5ccc(-c6ccccc6)cc5)N4C3=O)cc2c1` [Compound 175, ((((2-(((3S,6S,7aS, 8aR,9aR)-3-([1,1′-biphenyl]-4-ylcarbamoyl)-5-oxodecahydro-1H-cyclopropa[d]pyrrolo[1,2-a]azocin-6-yl)carbamoyl)benzo[b]thiophen-5-yl)difluoro-methyl)phosphoryl)bis(oxy)) bis(methylene) bis(2,2-dimethyl-propanoate)], the IC50 on pSTAT6 (pY641-STAT6) is more than 3000 nM; on pSTAT3 (pY705-STAT3) it was 100 to 1000 nM.
With `CC(C)OC(=O)[C@H](C)NP(=O)(Cc1ccc2sc(C(=O)N[C@H]3C[C@@H]4C[C@@H]4C[C@H]4CC[C@@H](C(=O)N5CC(C(=O)N6CCOCC6)C5)N4C3=O)cc2c1)Oc1ccccc1` (stereo partly drawn) [Compound 154, isopropyl (((2-(((3S,6S,7aS, 8aR,9aR)-3-(3-(morpholine-4-carbonyl)azetidine-1-carbonyl)-5-oxodecahydro-1H-cyclopropa[d]pyrrolo[1,2-a]azocin-6-yl)carbamoyl)benzo[b]thiophen-5-yl)methyl) (phenoxy) (phosphoryl)-L-alaninate], the IC50 against pSTAT6 (pY641-STAT6) was more than 3000 nM; on pSTAT3 (pY705-STAT3), 100 to 1000 nM.
On to `CCCC(=O)SCCOP(=O)(Oc1ccccc1)C(F)(F)c1ccc2sc(C(=O)N[C@H]3C[C@@H]4C[C@@H]4C[C@H]4CC[C@@H](C(=O)N5CC(n6ccnc6)C5)N4C3=O)cc2c1` (stereo partly drawn) [Compound 198, S-(2-((((2-(((3S,6S,7aS, 8aR,9aR)-3-(3-(1H-imidazol-1-yl)azetidine-1-carbonyl)-5-oxodecahydro-1H-cyclopropa[d]pyrrolo[1,2-a]azocin-6-yl)carbamoyl)benzo[b]thiophen-5-yl)difluoromethyl) (phenoxy)phosphoryl)oxy)ethyl) butanethioate], for which the IC50 against pSTAT6 (pY641-STAT6) was 1000 to 3000 nM; at pSTAT3 (pY705-STAT3), less than 100 nM.
Consider `CC(C)(C)C(=O)OCOP(=O)(OCOC(=O)C(C)(C)C)[C@@H](F)c1ccc2sc(C(=O)N[C@H]3C[C@@H]4C[C@@H]4C[C@H]4CC[C@@H](C(=O)N5CC(C(=O)N6CCOCC6)C5)N4C3=O)cc2c1` (single isomer, unassigned) [Compound 183, ((((R) or (S)-fluoro(2-(((3S,6S,7aS, 8aR,9aR)-3-(3-(morpholine-4-carbonyl)azetidine-1-carbonyl)-5-oxodecahydro-1H-cyclopropa[d]pyrrolo[1,2-a]azocin-6-yl)carbamoyl)benzo[b]thiophen-5-yl)methyl)phosphoryl)bis(oxy)) bis(methylene) bis(2,2-dimethyl-propanoate)], for which the IC50 on pSTAT6 (pY641-STAT6) was 100 to 1000 nM; at pSTAT3 (pY705-STAT3) it was less than 100 nM.
Turning to `CCCC(=O)SCCOP(=O)(OCCSC(=O)C(C)(C)C)C(F)(F)c1ccc2sc(C(=O)N[C@H]3C[C@@H]4C[C@@H]4C[C@H]4CC[C@@H](C(=O)N5CC(C(=O)N6CCOCC6)C5)N4C3=O)cc2c1` (stereo partly drawn) [Compound 138, S-(2-(((difluoro(2-(((3S,6S,7aS, 8aR,9aR)-3-(3-(morpholine-4-carbonyl)azetidine-1-carbonyl)-5-oxodecahydro-1H-cyclopropa [d]pyrrolo[1,2-a]azocin-6-yl)carbamoyl)benzo [b]thiophen-5-yl)methyl)(2-(pivaloylthio)ethoxy)phosphoryl)oxy)ethyl) butanethioate], the IC50 was 1000 to 3000 nM against pSTAT6 (pY641-STAT6) and less than 100 nM at pSTAT3 (pY705-STAT3).
For the compound `CC(C)(C)C(=O)OCOP(=O)(OCOC(=O)C(C)(C)C)C(F)(F)c1ccc2sc(C(=O)N[C@H]3C[C@H]4C[C@H]4C[C@H]4CC[C@@H](C(=O)NC5CN(C(=O)CCC(F)(F)F)C5)N4C3=O)cc2c1` [Compound 215, (((difluoro(2-(((3S,6S,7aR, 8aS,9aR)-5-oxo-3-((1-(4,4,4-trifluoro-butanoyl)azetidin-3-yl)carbamoyl)decahydro-1H-cyclopropa[d]pyrrolo[1,2-a]azocin-6-yl)carbamoyl)benzo[b]thiophen-5-yl)methyl)phosphoryl)bis(oxy)) bis(methylene) bis(2,2-dimethyl-propanoate)], the values for the IC50 against pSTAT6 (pY641-STAT6) and at pSTAT3 (pY705-STAT3) were 100 to 1000 nM and less than 100 nM, respectively.
For the compound `CC(C)(C)C(=O)SCCOP(=O)(OCCSC(=O)C(C)(C)C)C(F)(F)c1ccc2sc(C(=O)NC3CC4CC4CC4CCC(C(=O)N5CC(n6ccnc6)C5)N4C3=O)cc2c1` [Compound 180, S,S′-(((((2-(((3S,6S,7aR, 8aS,9aR)-3-(3-(1H-imidazol-1-yl)azetidine-1-carbonyl)-5-oxodecahydro-1H-cyclopropa[d]pyrrolo[1,2-a]azocin-6-yl)carbamoyl)benzo[b]thiophen-5-yl)difluoromethyl)phosphoryl)bis(oxy))bis(ethane-2,1-diyl)) bis(2,2-dimethyl-propanethioate)], the IC50 was more than 3000 nM on pSTAT6 (pY641-STAT6) and less than 100 nM at pSTAT3 (pY705-STAT3).
As to `O=C(OCOP(=O)(Cc1ccc2sc(C(=O)N[C@H]3C[C@H]4C[C@H]4C[C@H]4CC[C@@H](C(=O)N5CC(c6cccnc6)C5)N4C3=O)cc2c1)OCOC(=O)OC1CCOCC1)OC1CCOCC1` [Compound 135, ((((2-(((3S,6S,7aR, 8aS,9aR)-5-oxo-3-(3-(pyridin-3-yl)azetidine-1-carbonyl)decahydro-1H-cyclopropa[d]pyrrolo[1,2-a]azocin-6-yl)carbamoyl)benzo[b]thiophen-5-yl)methyl)phosphoryl)bis(oxy)) bis(methylene) bis(tetrahydro-2H-pyran-4-yl) bis(carbonate)], the IC50 is more than 3000 nM against pSTAT6 (pY641-STAT6) and less than 100 nM on pSTAT3 (pY705-STAT3).
